Measured values from patent publication US9580409B2, “Modulators of opioid receptors and methods of use thereof” (priority 2011, dated 2017).
Where two headings read alike, the source gives them in different places.

Target: mu-opioid receptor (Homo sapiens, UniProt P35372)
Experiment: biochemical
Conditions: read-out: GTP Activity
[1] = […], class symbol combines EC50 and efficacy

mu-opioid receptor, sequence (P35372 whole entry, species assumed): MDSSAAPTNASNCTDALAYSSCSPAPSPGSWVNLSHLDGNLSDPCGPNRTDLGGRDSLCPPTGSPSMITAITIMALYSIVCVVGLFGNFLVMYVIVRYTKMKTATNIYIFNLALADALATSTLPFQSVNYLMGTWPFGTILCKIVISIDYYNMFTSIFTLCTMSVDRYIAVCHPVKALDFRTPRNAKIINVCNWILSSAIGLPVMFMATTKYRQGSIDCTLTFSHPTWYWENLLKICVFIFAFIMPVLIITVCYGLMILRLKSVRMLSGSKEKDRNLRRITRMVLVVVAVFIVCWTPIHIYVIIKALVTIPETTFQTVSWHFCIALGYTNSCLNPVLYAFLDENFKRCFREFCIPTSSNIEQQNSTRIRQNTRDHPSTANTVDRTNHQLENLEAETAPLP

CNC1=C(c2nc3ccccc3[nH]2)C(=O)[C@H](CNC(=O)COC)N1c1cc(OC)cc(OC)c1 [compound 315]
EC50 [1]: < 100 nM

COCC1(C)C(=O)C(c2nc3ccccc3[nH]2)=C(N)N1c1cc(OC)cc(OC)c1 (stereo not shown) [compound 296]
EC50 [1]: 100 to 1000 nM

COc1cc(OC)cc(N2C(N)=C(c3nc4ccccc4[nH]3)C(=O)C2CCn2ccnc2)c1 (stereo not shown) [compound 239]
EC50 [1]: 100 to 1000 nM

COc1cc(OC)cc(N2CC(=O)C(c3nc4c(F)cccc4[nH]3)=C2N)c1 [compound 11]
EC50 (class symbols): 1000 to 10000 nM

CNC1=C(c2nc3ccccc3[nH]2)C(=O)C(C)(CNC(=O)COC)N1c1cc(OC)cc(OC)c1 (stereo not shown) [compound 283]
EC50 [1]: < 100 nM

COc1cc(OC)cc(N2C(N)=C(c3nc4ccccc4[nH]3)C(=O)C23CC3)c1 [compound 131]
EC50 (class symbols): 1000 to 10000 nM

CNC1=C(c2nc3ccccc3[nH]2)C(=O)C(C)(OC)N1c1cc(OC)cc(OC)c1 (stereo not shown) [compound 120]
EC50 (class symbols): 100 to 1000 nM

CNC1=C(c2nc3ccccc3[nH]2)C(=O)[C@@]2(CCCOC2)N1c1cc(OC)cc(OC)c1 [compound 306]
EC50 [1]: 100 to 1000 nM

C=CCNC1=C(c2nc3ccccc3[nH]2)C(=O)C(C)(C)N1c1cc(OC)cc(OC)c1 [compound 122]
EC50 (class symbols): 100 to 1000 nM

CC1(C)C(=O)C(c2nc3ccccc3[nH]2)=C(N)N1c1cc(Cl)cc(Cl)c1 [compound 159]
EC50 (class symbols): 1000 to 10000 nM

CCC1(O)C(=O)C(c2nc3ccccc3[nH]2)=C(NC)N1c1cc(OC)cc(OC)c1 (stereo not shown) [compound 115]
EC50 (class symbols): 100 to 1000 nM

COc1cc(OC)cc(N2C(N)=C(c3nc4ccccc4[nH]3)C(=O)C23CCCNC3)c1 (stereo not shown) [compound 293]
EC50 [1]: 1000 to 10000 nM

COc1cc(OC)cc(N2C(N)=C(c3nc4ccccc4[nH]3)C(=O)C2CCNc2ccccc2)c1 (stereo not shown) [compound 232]
EC50 [1]: 100 to 1000 nM

COc1cc(OC)cc(N2C(N)=C(c3nc4ccccc4[nH]3)C(=O)C2CCN2CCOCC2)c1 (stereo not shown) [compound 234]
EC50 [1]: 100 to 1000 nM

COc1cc(OC)cc(N2C(N)=C(c3nc4ccccc4[nH]3)C(=O)C2CCOc2ccccc2)c1 (stereo not shown) [compound 231]
EC50 [1]: 1000 to 10000 nM

CNC1=C(c2nc3ccccc3[nH]2)C(=O)C2(CCOCC2)N1c1cc(OC)cc(OC)c1 [compound 226]
EC50 [1]: 100 to 1000 nM

CNC1=C(c2nc3ccccc3[nH]2)C(=O)C2(CN(C)C2)N1c1cc(OC)cc(OC)c1 [compound 193]
EC50 (class symbols): 100 to 1000 nM

COc1cc(OC)cc(N2C(N)=C(c3nc4ccccc4[nH]3)C(=O)C2CCN(C)C(=O)c2ccccc2)c1 (stereo not shown) [compound 257]
EC50 [1]: 100 to 1000 nM

CNc1c(-c2nc3ccccc3[nH]2)c(=O)n(CCO)n1-c1cc(OC)cc(OC)c1 [compound 265]
EC50 [1]: 100 to 1000 nM

CNC1=C(c2nc3ccccc3[nH]2)C(=O)[C@@H](CNC(=O)COC)N1c1cc(OC)cc(OC)c1 [compound 316]
EC50 [1]: < 100 nM

CNC1=C(c2nc3ccccc3[nH]2)C(=O)C(C)(C)N1c1cc(O)cc(OC)c1 [compound 129]
EC50 (class symbols): 100 to 1000 nM

CNC1=C(c2nc3ccccc3[nH]2)C(=O)C(C)(CCNC(=O)COC)N1c1cc(OC)cc(OC)c1 (stereo not shown) [compound 286]
EC50 [1]: < 100 nM

CNC1=C(c2nc3ccccc3[nH]2)C(=O)C(CCN)N1c1cc(OC)cc(OC)c1 (stereo not shown) [compound 253]
EC50 [1]: 100 to 1000 nM

COc1cc(OC)cc(N2CC(=O)C(c3nc4cscc4[nH]3)=C2N)c1 [compound 173]
EC50 (class symbols): 1000 to 10000 nM

CNC1=C(c2nc3ccccc3[nH]2)C(=O)[C@](C)(CCOC)N1c1cc(OC)cc(OC)c1 [compound 299]
EC50 [1]: 100 to 1000 nM

COc1cc(OC)cc(-n2c(NO)c(-c3nc4ccccc4[nH]3)c(=O)n2C)c1 [compound 143]
EC50 (class symbols): 1000 to 10000 nM

CNC1=C(c2nc3ccccc3[nH]2)C(=O)[C@@](C)(CO)N1c1cc(OC)cc(OC)c1 [compound 211]
EC50 [1]: 100 to 1000 nM

CNC1=C(c2nc3ccccc3[nH]2)C(=O)C2(CNC(=O)C2)N1c1cc(OC)cc(OC)c1 (stereo not shown) [compound 274]
EC50 [1]: 100 to 1000 nM

CNc1c(-c2nc3ccccc3[nH]2)c(=O)n(C2CCC2)n1-c1cc(OC)cc(OC)c1 [compound 269]
EC50 [1]: 100 to 1000 nM

COc1cc(OC)cc(N2C(N)=C(c3nc4ccccc4[nH]3)C(=O)C23CCOCC3)c1 [compound 224]
EC50 [1]: 100 to 1000 nM

COc1cc(OC)cc(N2C(N)=C(c3nc4ccccc4[nH]3)C(=O)C23CN(S(C)(=O)=O)C3)c1 [compound 251]
EC50 [1]: 100 to 1000 nM

COC(=O)C1C(=O)C(c2nc3ccccc3[nH]2)=C(N)N1c1cc(OC)cc(OC)c1 (stereo not shown) [compound 134]
EC50 (class symbols): 1000 to 10000 nM

COc1cc(OC)cc(N2CC(=O)C(c3nc4cc(OC)ccc4[nH]3)=C2N)c1 [compound 7]
EC50 (class symbols): 1000 to 10000 nM

CNC1=C(c2nc3ccccc3[nH]2)C(=O)[C@](C)(CNC(=O)COC)N1c1cc(OC)cc(OC)c1 [compound 317]
EC50 [1]: 100 to 1000 nM

COc1cc(OC)cc(N2C(N)=C(c3nc4ccccc4[nH]3)C(=O)C23CN(C(C)=O)C3)c1 [compound 248]
EC50 [1]: 100 to 1000 nM

CNC1=C(c2nc3ccccc3[nH]2)C(=O)[C@](C)(CO)N1c1cc(OC)cc(OC)c1 [compound 212]
EC50 [1]: < 100 nM

CNc1c(-c2nc3ccccc3[nH]2)c(=O)n(CCNC(C)=O)n1-c1cc(OC)cc(OC)c1 [compound 271]
EC50 [1]: 100 to 1000 nM

CC[C@@H]1C(=O)C(c2nc3ccccc3[nH]2)=C(NC)N1c1cc(OC)cc(OC)c1 [compound 184]
EC50 (class symbols): 100 to 1000 nM

Cc1ccc(C)c(N2CC(=O)C(c3nc4cc(C)ccc4[nH]3)=C2N)c1 [compound 15]
EC50 (class symbols): 1000 to 10000 nM

[2H]C([2H])([2H])Oc1cc(OC([2H])([2H])[2H])cc(N2C(N)=C(c3nc4ccccc4[nH]3)C(=O)C2(C)C)c1 [compound 135]
EC50 (class symbols): 100 to 1000 nM

COc1cc(OC)cc(N2C(N3CCCC3)=C(c3nc4ccccc4[nH]3)C(=O)C2(C)C)c1 [compound 144]
EC50 (class symbols): 1000 to 10000 nM

COCCNC1=C(c2nc3ccccc3[nH]2)C(=O)C(C)(C)N1c1cc(OC)cc(OC)c1 [compound 91]
EC50 (class symbols): 1000 to 10000 nM

CC(C)(C)c1ccccc1N1CC(=O)C(c2nc3ccccc3[nH]2)=C1N [compound 48]
EC50 (class symbols): 1000 to 10000 nM

CNC1=C(c2nc3ccccc3[nH]2)C(=O)C(C)(c2ccco2)N1c1cc(OC)cc(OC)c1 (stereo not shown) [compound 278]
EC50 [1]: 100 to 1000 nM

COc1cc(OC)cc(N2C(N)=C(c3nc4ccccc4[nH]3)C(=O)C23CCC3)c1 [compound 108]
EC50 (class symbols): < 100 nM

COc1cc(OC)cc(N2C(Nc3ccccc3)=C(c3nc4ccccc4[nH]3)C(=O)C2(C)C)c1 [compound 126]
EC50 (class symbols): 1000 to 10000 nM

CNC1=C(c2nc3ccccc3[nH]2)C(=O)C(C)(CO)N1c1cc(OC)cc(OC)c1 (stereo not shown) [compound 201]
EC50 [1]: < 100 nM

COc1cc(OC)cc(N2C(N)=C(c3nc4ccccc4[nH]3)C(=O)[C@@H]2C)c1 [compound 83]
EC50 (class symbols): 1000 to 10000 nM

COc1cc(OC)cc(N2C(N)=C(c3nc4ccccc4[nH]3)C(=O)C23CC(=O)C3)c1 [compound 207]
EC50 [1]: 100 to 1000 nM

CNc1c(-c2nc3ccccc3[nH]2)c(=O)n(CCOC)n1-c1cc(OC)cc(OC)c1 [compound 266]
EC50 [1]: < 100 nM

[2H]C1CC2(CC1=O)C(=O)C(c1nc3ccccc3[nH]1)=C(NC)N2c1cc(OC)cc(OC)c1 (stereo not shown) [compound 314]
EC50 [1]: < 100 nM

COCC1C(=O)C(c2nc3ccccc3[nH]2)=C(N)N1c1cc(OC)cc(OC)c1 (stereo not shown) [compound 68]
EC50 (class symbols): 100 to 1000 nM

CNC1=C(c2nc3ccccc3[nH]2)C(=O)[C@@](C)(CCNC(C)=O)N1c1cc(OC)cc(OC)c1 [compound 304]
EC50 [1]: < 100 nM

CNC1=C(c2nc3ccccc3[nH]2)C(=O)C(C)(CCO)N1c1cc(OC)cc(OC)c1 (stereo not shown) [compound 217]
EC50 [1]: < 100 nM

COc1cc(OC)cc(N2C(N)=C(c3nc4ccccc4[nH]3)C(=O)C2CN)c1 (stereo not shown) [compound 70]
EC50 (class symbols): 100 to 1000 nM

COc1cc(OC)cc(N2C(N)=C(c3nc4ccccc4[nH]3)C(=O)C2CCN(C)C(C)=O)c1 (stereo not shown) [compound 256]
EC50 [1]: 100 to 1000 nM

CCOC(=O)C1CC2(CC1=O)C(=O)C(c1nc3ccccc3[nH]1)=C(N)N2c1cc(OC)cc(OC)c1 (stereo not shown) [compound 313]
EC50 [1]: 1000 to 10000 nM

COc1cc(OC)cc(-n2nc(N)c(-c3nc4ccccc4[nH]3)c2N)c1 [compound 66]
EC50 (class symbols): 100 to 1000 nM

COc1cc(OC)cc(N2C(N)=C(c3nc4ccccc4[nH]3)C(=O)C2CO)c1 (stereo not shown) [compound 67]
EC50 (class symbols): 1000 to 10000 nM

CCOc1cc(OCC)cc(N2C(N)=C(c3nc4ccccc4[nH]3)C(=O)C2(C)C)c1 [compound 158]
EC50 (class symbols): 1000 to 10000 nM

CC[C@@H]1C(=O)C(c2nc3ccccc3[nH]2)=C(N)N1c1cc(OC)cc(OC)c1 [compound 97]
EC50 (class symbols): 1000 to 10000 nM

COc1cc(OC)cc(N2C(N)=C(c3nc4ccccc4[nH]3)C(=O)C2(C)c2cccc(O)c2)c1 (stereo not shown) [compound 210]
EC50 [1]: 1000 to 10000 nM

COc1cc(OC)cc(N2C(N)=C(c3nc4ccccc4[nH]3)C(=O)C2(C)c2ccc(O)cc2)c1 (stereo not shown) [compound 209]
EC50 [1]: 1000 to 10000 nM

CNC1=C(c2nc3ccccc3[nH]2)C(=O)C(C)(CC(C)=O)N1c1cc(OC)cc(OC)c1 (stereo not shown) [compound 276]
EC50 [1]: 100 to 1000 nM

COc1cc(OC)cc(N2CC(=O)C(c3nc4cc(C)ccc4[nH]3)=C2N)c1 [compound 6]
EC50 (class symbols): 1000 to 10000 nM

CC(C)(C)Oc1ccccc1N1CC(=O)C(c2nc3ccccc3[nH]2)=C1N [compound 45]
EC50 (class symbols): 1000 to 10000 nM

COc1cc(OC)cc(N2C(N)=C(c3nc4ccccc4[nH]3)C(=O)C23CN(C(=O)c2ccccc2)C3)c1 [compound 250]
EC50 [1]: 1000 to 10000 nM

COc1cc(OC)cc(N2C(N)=C(c3nc4ccccc4[nH]3)C(=O)C2CCN(C)C)c1 (stereo not shown) [compound 222]
EC50 [1]: 1000 to 10000 nM

COc1cc(OC)cc(N2C(NCC3CC3)=C(c3nc4ccccc4[nH]3)C(=O)C2(C)C)c1 [compound 125]
EC50 (class symbols): 1000 to 10000 nM

CNC1=C(c2nc3ccccc3[nH]2)C(=O)C(C)(C(C)=O)N1c1cc(OC)cc(OC)c1 (stereo not shown) [compound 277]
EC50 [1]: 100 to 1000 nM

CNC1=C(c2nc3ccccc3n2C)C(=O)C(C)(C)N1c1cc(OC)cc(OC)c1 [compound 81]
EC50 (class symbols): 100 to 1000 nM

CCC1(O)C(=O)C(c2nc3ccccc3[nH]2)=C(N)N1c1cc(OC)cc(OC)c1 (stereo not shown) [compound 113]
EC50 (class symbols): 100 to 1000 nM

COc1cc(OC)cc(-n2c(N)c(-c3nc4ccccc4[nH]3)c(=N)n2C)c1 [compound 110]
EC50 (class symbols): 100 to 1000 nM

CC[C@]1(C)C(=O)C(c2nc3ccccc3[nH]2)=C(N)N1c1cc(OC)cc(OC)c1 [compound 84]
EC50 (class symbols): 100 to 1000 nM

CNC1=C(c2nc3ccccc3[nH]2)C(=O)[C@@](C)(COC)N1c1cc(OC)cc(OC)c1 [compound 298]
EC50 [1]: < 100 nM

COc1cc(OC)cc(N2C(N)=C(c3nc4ccccc4[nH]3)C(=O)C23CN(C)C3)c1 [compound 190]
EC50 (class symbols): 1000 to 10000 nM
